{"source": "patent US11723886B2", "about": "“Targeting ocular diseases with novel APE1/Ref-1 inhibitors” (Indiana University Research and Technology Corporation, priority 2018, dated 2023)", "key": {"[1]": {"system": "human retinal microvascular endothelial cells (HRECs)", "experiment": "In vitro cell proliferation assay (alamarBlue), HRECs", "format": "cell-based", "conditions": "HREC, read-out: GI50 (median growth inhibition), HRECs", "protocol": "(§1) Cells. Primary human retinal microvascular endothelial cells (HRECs) were obtained from Cell Systems, Inc. (Kirkland, Wash.), while the Rf/6a macacque choroidal endothelial cell line was obtained from ATCC (Manassas, Va.). Cells were maintained as described (Basavarajappa et al., EMBO Mol Med 9:786-801 (2017)), re-ordered at least annually, and regularly assessed for mycoplasma contamination.\n(§2) In vitro cell proliferation assay. Endothelial cell proliferation was measured as described previously (Basavarajappa et al., PLoS One 9:e95694 (2014); Basavarajappa et al., EMBO Mol Med 9:786-801 (2017)). Briefly, 2.5×10^3 cells were seeded in 100 μL of growth medium and plated in each well of 96-well clear-bottom black plates and incubated for 24 hours. APX2009, APX2014, or DMSO vehicle (DMSO final concentration=1%) was added, and the plates were incubated for 24-48 hours in 100 μL complete medium at 37° C. and 5% CO2. AlamarBlue reagent (11.1 μL) was added to each well of the plate and 4 hours later fluorescence readings were taken at excitation and emission wavelengths of 560 nm and 590 nm, respectively, using a Synergy H1 plate reader (BioTek, Winooski, Vt.). GI50 was calculated using GraphPad Prism v. 7.0."}, "[2]": {"system": "Rf/6a macaque choroidal endothelial cells", "experiment": "In vitro cell proliferation assay (alamarBlue), Rf/6a", "format": "cell-based", "conditions": "Macaca mulatta, Rf/6a choroidal endothelial cells, read-out: GI50 (median growth inhibition), Rf/6a", "protocol": "as §1, §2"}, "HRECs": {"system": "HRECs", "experiment": "Matrigel tube formation assay, HRECs", "format": "cell-based, human", "conditions": "mid nanomolar concentrations, vs control", "protocol": "(§3) In vitro Matrigel tube formation assay. The ability of HRECs and Rf/6a cells to form tubes in vitro was monitored as described before (Basavarajappa et al., PLoS One 9:e95694 (2014); Basavarajappa et al., EMBO Mol Med 9:786-801 (2017)). Briefly, cells were treated with the indicated concentrations of APX2009 or APX2014 compounds or DMSO for 48 hours and then 1.5×10^4 cells in 100 μL of growth medium containing DMSO or APX compounds were added to each well of a 96-well plate that was pre-coated with 50 μL of Matrigel basement membrane (DMSO final concentration=1%). Digital photographs of each well at different time points were taken to measure the in vitro tube formation using the Angiogenesis Analyzer plugin in ImageJ software (v.1.48; http://image.bio.methods.free.fr/ImageJ/?Angiogenesis-Analyzer-for-ImageJ.html)."}, "Rf/6a cells": {"system": "Rf/6a cells", "experiment": "Matrigel tube formation assay, Rf/6a", "format": "cell-based, macaque", "conditions": "mid nanomolar concentrations, vs control", "protocol": "as §3"}, "NF-κB p65": {"system": "NF-κB p65", "experiment": "NF-κB p65 nuclear translocation assay in TNF-α stimulated HRECs", "format": "cell-based, human", "conditions": "10 ng/ml TNF-α", "protocol": "NF-κB p65 nuclear translocation assay. The NF-κB nuclear translocation assay was performed by seeding 30,000 HRECs/well on an 8-well chamber slide coated with attachment factors. The cells were grown in EGM-2 medium overnight before treating with indicated concentrations of APX2009 and APX2014, or 10 μM BAY 11-7082 (Sigma, St. Louis, Mo.) as a positive control NF-κB inhibitor. After 17 hours incubation, the media was replaced with EBM-2 (minimal medium) with indicated concentrations of compound or DMSO for 1 hour. The cells were then stimulated with 10 ng/ml TNF-α in EBM-2 for 20 minutes at 37° C. to activate NF-κB. Cells were then fixed in 4% paraformaldehyde and permeabilized using 0.5% Triton X-100 solution prepared in PBS. The cells were incubated with a monoclonal antibody against NF-κB p65 (sc-8008; Santa Cruz, Santa Cruz, Calif.) (1:50) overnight at 4° C., followed by Alexafluor 555 goat anti-mouse secondary antibody (1:2000) for one hour. The cells were counter-stained with Hoechst 33342 for nuclear staining and then mounted using Everbrite hardset mounting medium. The cells were imaged using a Zeiss AxioImager D2 microscope."}, "HIF-regulated genes": {"system": "HIF-regulated genes", "experiment": "RNA-Seq of HIF-regulated genes in HRECs", "format": "cell-based, human", "conditions": "0.1 and 1 μM, 6 and 24 hours", "protocol": "Human retinal endothelial cells (HRECs) (Cell Systems, Inc. Kirkland, Wash.) were plated in 6-well plates and treated with 0.1 μM APX2009, 1 μM APX2009 or DMSO for 6 hours and 24 hours. Cells were washed once after treatment with PBS, collected and frozen. This process was repeated to collect treated cells in 4 different passages. RNA was extracted in 300 μL Trizol (Life Technologies, Carlsbad, Calif.) and flash frozen at −80° C. The SMARTer system (Clontech, Mountain View, Calif.) was used to generate cDNA from cells. The dscDNA quantity and quality was assessed using an Agilent Bioanalyzer (Agilent Technologies, Santa Clara, Calif., USA) with the High Sensitivity DNA Chip. […] The IUSM Genomics Facility prepared libraries using a Nextera kit (Illumina, San Diego, Calif.). DNAs were sequenced using the Illumina HiSeq 4000."}, "[3]": {"system": "APE1 repair activity in neurons", "conditions": "cited from earlier work"}}, "data": [{"smiles": "CCC/C(=C\\C1=C(OC)C(=O)c2ccccc2C1=O)C(=O)N(CC)CC", "note": "[APX2009, (2E)-2-[(3-methoxy-1,4-dioxo-1,4-dihydronaphthalen-2-yl)methylidene]-N,N-diethylpentanamide]", "values": [{"measurement": "GI50", "setting": "[1]", "value": 1.1, "unit": "µM"}, {"measurement": "GI50", "setting": "[2]", "value": 26, "unit": "µM"}, {"measurement": "ability to form tubes, HRECs", "setting": "HRECs", "value": "significantly reduced"}, {"measurement": "ability to form tubes, Rf/6a", "setting": "Rf/6a cells", "value": "significantly reduced"}, {"measurement": "translocation of p65 into the nucleus in response to TNF-α", "setting": "NF-κB p65", "value": "dose-dependently attenuated"}, {"measurement": "expression of HIF regulated genes (RNA-Seq)", "setting": "HIF-regulated genes", "value": "blocked HIF regulated genes in a concentration dependent manner"}, {"measurement": "APE1 repair activity in neurons", "setting": "[3]", "value": "can enhance APE1 repair activity"}]}, {"smiles": "CCC/C(=C\\C1=C(OC)C(=O)c2ccccc2C1=O)C(=O)NOC", "note": "[APX2014, (2E)-2-[(3-methoxy-1,4-dioxo-1,4-dihydronapthalen-2-yl)methylidene]-N-methoxypentanamide]", "values": [{"measurement": "GI50", "setting": "[1]", "value": 0.11, "unit": "µM"}, {"measurement": "GI50", "setting": "[2]", "value": 5, "unit": "µM"}, {"measurement": "ability to form tubes, HRECs", "setting": "HRECs", "value": "significantly reduced"}, {"measurement": "ability to form tubes, Rf/6a", "setting": "Rf/6a cells", "value": "significantly reduced"}, {"measurement": "translocation of p65 into the nucleus in response to TNF-α", "setting": "NF-κB p65", "value": "dose-dependently attenuated"}]}]}
